Laboratory results reported in paper PMC7114565 (Virus Research, 2016).
“And” between values parts separate entries of the source, which are not always exact repeats. Identical values can stand only once. “Also recorded” adds a separate entry of the source.

How the values were obtained:
[1] = in vitro; conditions: mouse
[2] = system: SARS-CoV; format: cell-based
[3] = system: HCoV-NL63; conditions: cited from earlier work
[4] = system: MERS-CoV EMC/2012; format: cell-based
[5] = system: murine hepatitis virus (MHV; strain A59); format: cell-based
[6] = system: human coronavirus 229E (HCoV-229E); format: cell-based
[7] = system: MERS-CoV EMC/2012; assay: microbe, parasite or virus in culture; conditions: Middle East respiratory syndrome-related coronavirus, Huh-7, 48 h
[8] = system: MERS-CoV EMC/2012
[9] = in vitro; conditions: rhesus monkey
[10] = system: LLC-MK2 cells

## C/C=C/C[C@@H](C)[C@@H](O)[C@H]1C(=O)N[C@@H](CC)C(=O)N(C)[C@H](C)C(=O)N(CC)[C@@H](C(C)C)C(=O)N[C@@H](C(C)C)C(=O)N(C)[C@@H](CC(C)C)C(=O)N[C@@H](C)C(=O)N[C@H](C)C(=O)N(C)[C@@H](CC(C)C)C(=O)N(C)[C@@H](CC(C)C)C(=O)N(C)[C@@H](C(C)C)C(=O)N1C [ALV, alisporivir]
[1]
  viability: > 85%
[2]
  effect on SARS-CoV infection: sensitive; also recorded: near-complete block
  reduction in SARS-CoV virus progeny: ~1.5 log
[3]
  EC50: 800 nM
  reduction in HCoV-NL63 virus progeny: 4 log
[4]
  decrease in MERS-CoV progeny titer: comparable decrease in progeny titer
  reduction of MERS-CoV progeny titer: ~2 log
[5]
  decrease of MHV progeny titers: 1 log
  reduction of MHV progeny titers: ~2 log
[6]
  reduction of HCoV-229E production: ~1.5 log and ~2 log
[7]
  EC50: 3.4 ± 1 µM
[8]
  CC50 values times higher than the observed EC50 values: 7–13 times
[9]
  CC50: 14.3 ± 1.8 µM

## NC(=O)c1ncn([C@@H]2O[C@H](CO)[C@@H](O)[C@H]2O)n1 [ribavirin]
[10]
  effect on cell viability: gradually lowered the cell viability
